“And” between values parts separate entries of the source, which are not always exact repeats. Equal entries are not always repeated.
What was measured:
[1] = test system: endothelial nitric oxide synthase (eNOS)-dependent nitric oxide (NO) production; experiment: Example 3: endothelial NO production in ex vivo aorta by EPR; details: 0.05 mg/kg b.w./day, vs untreated age-matched mice
From the text: For measurements of endothelial nitric oxide synthase (eNOS)-dependent nitric oxide (NO) production, EPR spin-trapping with diethyldithiocarbamic acid sodium salt (DETC) was used ex vivo, as described in Przyborowski K, Proniewski B, Czarny J, Smeda M, Sitek B, Zakrzewska A, et al. Vascular Nitric Oxide-Superoxide Balance and Thrombus Formation after Acute Exercise. Med Sci Sport Exerc 2018:1. doi:10.1249/MSS.0000000000001589, with minor modifications. Isolated aorta cleared from surrounding tissue was opened longitudinally and preincubated with 10 μM L-NIL (N6-(1-Iminoethyl)-lysine, hydrochloride) in Krebs-HEPES buffer for 30 minutes at 37° C. in a well of a 48-well plate. Next, 250 μL of Fe(DETC)2 colloid was added and aorta was stimulated with calcium ionophore A23187 (the final concentration was 1 μM) and subsequently, incubated for 90 minutes at 37° C. Finally, aorta was weighed and frozen in liquid nitrogen (suspended in fresh buffer) into the middle of a 400 μL column of Krebs-Hepes buffer and stored at −80° C. until measured. EPR spectra were obtained using an X-band EPR spectrometer (EMX Plus, Bruker, Germany), equipped with a rectangular resonator cavity H102. Signals were quantified by measuring the total amplitude of the NO—Fe(DETC)2 after correction of baseline. The quantitative results of NO production assessed by EPR were expressed in AU/mg of tissue.

[2] = test system: ApoE/LDLR−/− mice; experiment: Example 2: MRI-based assessment of NO-dependent vasodilatation in BCA and LCA after acetylcholine; format: in vivo; details: two months, 6-month old mice
Protocol: Endpoint assays: Magnetic resonance imaging (MRI)-based assessment of nitric oxide (NO)-dependent vasodilatation in brachiocephalic (BCA) and left common carotid artery (LCA) after acetylcholine (Ach) administration—by MRI 9.4T scanner, total time of measurements: 114 h (1.5 h per animal), acetylcholine (Ach, 16.6 mg/kg b.w.)
Studies were performed on 4-month old female ApoE/LDLR−/− mice, the model initially described by Ishibashi S, Herz J, Maeda N, Goldstein J, Brown M. The two-receptor model of lipoprotein clearance: tests of the hypothesis in “knockout” mice lacking the low density lipoprotein receptor, apolipoprotein E, or both proteins. Proc Natl Acad Sci USA 1994; 10:4431-5., and extensively characterized in previous studies, [see Kostogrys R B, Franczyk-Zarow M, Gasior-Glogowska M, Kus E, Jasztal A, Wrobel T P, et al. Anti-atherosclerotic effects of pravastatin in brachiocephalic artery in comparison with en face aorta and aortic roots in ApoE/LDLR−/− mice. Pharmacol Reports 2017; 69:112-8. doi:10.1016/j.pharep.2016.09.014; Tyrankiewicz U, Skorka T, Orzylowska A, Jablonska M, Jasinski K, Jasztal A, et al. Comprehensive MRI for the detection of subtle alterations in diastolic cardiac function in apoE/LDLR−/− mice with advanced atherosclerosis. NMR Biomed 2016; 29:833-40. doi:10.1002/nbm.3524; Mateuszuk L, Jasztal A, Maslak E, Gasior-Glogowska M, Baranska M, Sitek B, et al. Antiatherosclerotic Effects of 1-Methylnicotinamide in Apolipoprotein E/Low-Density Lipoprotein Receptor-Deficient Mice: A Comparison with Nicotinic Acid. J Pharmacol Exp Ther 2016; 356:514-24. doi:10.1124/jpet.115.228643; Wrobel T P, Marzec K M, Chlopicki S, Maślak E, Jasztal A, Franczyk-Żarów M, et al., Effects of Low Carbohydrate High Protein (LCHP) diet on atherosclerotic plaque phenotype in ApoE/LDLR−/− mice: FT-IR and Raman imaging. […] End-diastolic volumes of BCA and LCA were analyzed using ImageJ software (1.46r NIH Bethesda, Md., USA) and scripts written in Matlab (MathWorks, Natick, Mass., USA) (FIG. 1A).

[3] = test system: ApoE/LDLR−/− mice; experiment: Example 2: nitrite and nitrate concentration in plasma (ENO-20); format: in vivo; details: two months
Protocol: Nitrite (NO2−) and nitrate (NO3−) concentration in plasma—HPLC-based ENO-20
Blood samples were collected from heart into test tubes containing additional anticoagulant and centrifuged at 1000 g for 10 min at 4° C. The samples were used for HPLC measurement of nitrate (NO3^−) and nitrite (NO2^−) concentrations in plasma by an ENO-20 NOx Analyzer.

CC(C)=CCC/C(C)=C/CC/C(C)=C/CC/C(C)=C/CC/C(C)=C/CC/C(C)=C/CC/C(C)=C/CC1=C(C)C(=O)c2ccccc2C1=O [MK-7, menaquinone-7]
nitric oxide production in ex vivo aorta by EPR [1]: increased
volume change of BCA after Ach injection ([2]; high dose 10 mg/kg b.w./day): 3.12%
volume change of LCA after Ach injection ([2]; high dose 10 mg/kg b.w./day): 4.45%
volume change of LCA after Ach injection ([2]; low dose 0.03 mg/kg b.w./day, listed as vitamin MK-7, 0.03 mg/kg/day): ~−3% and −3.92%
concentration of NO3− in plasma ([3]; 0.03 or 10 mg/kg b.w./day): did not change significantly
increase in NO2− concentration in plasma ([3]; high dose 10 mg/kg b.w./day): ~42%
increase in NO2− concentration in plasma ([3]; low dose 0.03 mg/kg b.w./day): about 58%
